This passage reports IC50 cell viability results from the supplement of paper PMC6580486.
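Further: alveolar rhabdomyosarcoma tumor culture.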

The subject of this experiment is U23674 (mouse alveolar rhabdomyosarcoma primary culture).
As for `COc1cc2ncn(-c3cc(O[C@H](C)c4ccccc4Cl)c(C(N)=O)s3)c2cc1OC`, the IC50 cell viability stood at 0.1 µM. In the case of `CCn1c(-c2nonc2N)nc2c(C#CC(C)(C)O)ncc(OCC3CCCN3)c21` (stereo unspecified) it was 5.2 µM; in that of `NS(=O)(=O)c1ccc(-c2cc3ccncc3cc2OCc2ccccc2)cc1`, more than 10 µM; in that of `NC(=O)c1sc(-n2cnc3cc(C(F)(F)F)ccc32)cc1OCc1ccccc1Br`, more than 10 µM. In the case of `Fc1ccc(-c2c(-c3ccncc3)nc3n2CCS3)cc1` it was more than 10 µM. Molecule `COc1cc2ncn(-c3cc(OCc4ccccc4S(C)(=O)=O)c(C#N)s3)c2cc1OC` registered an IC50 cell viability of more than 10 µM.

Regarding `Clc1ccc(-c2nn3ncccc3c2-c2ccnc(Nc3ccccc3)n2)cc1`, the IC50 cell viability was more than 10 µM. In the case of `[O-][S+]1CCN(Cc2ccc(-c3ccc4ncnc(Nc5ccc(OCc6ccccc6)c(F)c5)c4c3)o2)CC1` it was more than 10 µM.

`NS(=O)(=O)c1ccc(-c2ccc3c(NC(=O)C4CC4)n[nH]c3c2)cc1` returned an IC50 cell viability of more than 10 µM. In the case of `COc1cc(/C=N/Nc2ncnc3[nH]ncc23)ccc1O`, the IC50 cell viability was more than 10 µM. `Cc1ccc2c(-c3ccnc(Nc4ccccc4)n3)c(-c3ccc(F)cc3)nn2n1`: the IC50 cell viability is more than 10 µM. In the case of `N#Cc1cccc(Nc2nccc(-c3cnn4ncccc34)n2)c1` it was 0.05 µM; in that of `FC(F)(F)c1cccc(Nc2nccc(-c3cnn4nc(-c5ccccc5)ccc34)n2)c1`, more than 10 µM. `COc1cc2c(cc1Nc1nc(Nc3ccsc3C(N)=O)c3cc[nH]c3n1)N(C(=O)CN(C)C)CCC2(C)C` showed an IC50 cell viability of 0.4 µM.

In the case of `CCn1c(-c2nonc2N)nc2cncc(C(=O)NCCNC)c21`, the IC50 cell viability is more than 10 µM.

Turning to `CC(C)c1ccc(Nc2nccc(-c3cnn4ncccc34)n2)cc1`, the IC50 cell viability is more than 10 µM. In the case of `CNC(=O)c1sc(-n2cnc3cc(OC)c(OC)cc32)cc1OCc1ccccc1C(F)(F)F` it was more than 10 µM. With `NC(=O)Cc1ccccc1Oc1nccc(-c2c(-c3ccc(F)cc3)ncn2C2CCNCC2)n1`, the IC50 cell viability is more than 10 µM.

As for `CN1CCC(n2cnc(-c3ccc(F)cc3)c2-c2ccnc(N)n2)CC1`, the IC50 cell viability is more than 10 µM. For the molecule `CC(=O)Nc1cccc(C#Cc2cncnc2Nc2ccc(OCc3cccc(F)c3)c(Cl)c2)c1`, the IC50 cell viability is more than 10 µM.

On to `O=C1Nc2ccc(I)cc2C1=Cc1cc(Br)c(O)c(Br)c1`, for which the IC50 cell viability was more than 10 µM. As to `O=C(Nc1n[nH]c2nc(-c3ccc(O)cc3)c(Br)cc12)C1CC1`, the IC50 cell viability is more than 10 µM.

Consider `CC(C)c1ccc2c(N=Nc3ccc(S(N)(=O)=O)cc3)c(O)[nH]c2c1`, for which the IC50 cell viability is more than 10 µM. In the case of `COc1cccc(-n2ncc3c(N/N=C/c4ccc(C)cc4)ncnc32)c1` it was more than 10 µM. In the case of `CCn1c(-c2nonc2N)nc2ccccc21` it was more than 10 µM; in that of `CNC(=O)c1cncc(/C=C/c2c(C)cccc2C)c1`, more than 10 µM; in that of `CCCNc1cccc(-n2ncc3c(N/N=C/c4ccncc4)ncnc32)c1`, more than 10 µM.

As for `COc1ccc(-c2ccncc2)cc1C(N)=O`, the IC50 cell viability was more than 10 µM. For `COc1cccc(COc2cc(-n3cnc4ccccc43)sc2C(N)=O)c1`, the IC50 cell viability was more than 10 µM. `COc1cc2c(cc1Nc1nc(Nc3cccc(F)c3C(N)=O)c3cc[nH]c3n1)N(C(=O)CN1CCN(C(C)C)CC1)CC2`: the IC50 cell viability came out at 3.2 µM.

In turn, `CS(=O)(=O)CCNCc1nc(-c2ccc3ncnc(Nc4ccc(F)c(Cl)c4)c3c2)cs1` registered an IC50 cell viability of more than 10 µM. As for `O=C(Nc1n[nH]c2nnc(-c3cccnc3)cc12)C1CC1`, the IC50 cell viability was more than 10 µM. In the case of `Fc1ccc(-c2ncn(C3CCNCC3)c2-c2ccnc(Oc3ccc(F)c(F)c3)n2)cc1` it was 6.2 µM; in that of `Nc1nccc(-c2c(-c3ccc(F)cc3)nn3cc(C(F)(F)F)ccc23)n1`, more than 10 µM; in that of `Cc1ccc(C(=O)NC2CCCCC2)cc1-c1ccc(C(=O)NCC2CC2)cc1`, more than 10 µM.

Turning to `COc1cccc(-n2cnc3c(N/N=C/c4ccncc4)ncnc32)c1`, the IC50 cell viability is more than 10 µM. In the case of `COc1cc(Nc2ncc3c(C)nc(-c4cccc(C(F)(F)F)c4)n3n2)cc(OC)c1OC`, the IC50 cell viability was more than 10 µM. In the case of `COC(=O)Nc1nc2ccc(Oc3ccc(NC(=O)Nc4cc(C(F)(F)F)ccc4F)cc3)cc2s1` it was more than 10 µM; in that of `O=C(OC1CNC(C#Cc2cc3ncnc(Nc4ccc5c(ccn5Cc5cc(F)ccc5F)c4)c3s2)C1)N1CCOCC1` (stereo unspecified), more than 10 µM; in that of `O=C1NC(=O)C(c2cccc(Cl)c2)=C1Nc1ccc(Cl)c(C(=O)O)c1`, more than 10 µM. Regarding `CCS(=O)(=O)c1ccc(OC)c(Nc2ncc(-c3cccc(-c4ccccc4F)c3)o2)c1`, the IC50 cell viability is more than 10 µM. In the case of `FC(F)(F)c1ccc(-c2nn3ncccc3c2-c2ccnc(Nc3ccc4c(c3)OCCO4)n2)cc1` it was more than 10 µM. In the case of `COc1cccc(-n2ncc3c(N/N=C/c4ccc(F)cc4)ncnc32)c1` it was more than 10 µM.

Turning to `Cc1ccc(C(=O)NC2CCC2)cc1-c1ccc(C(=O)NCC2CC2)cc1`, the IC50 cell viability is more than 10 µM. Turning to `Fc1ccc(-c2ncn(C3CCNCC3)c2-c2ccnc(Oc3ccc(Oc4ccccc4)cc3)n2)cc1`, the IC50 cell viability is 2 µM.

`OCCCNc1nccc(-c2c(-c3ccc(F)cc3)nn3cc(C(F)(F)F)ccc23)n1` had an IC50 cell viability of more than 10 µM. In the case of `Cc1ccc(C(=O)NC(C)C)cc1-c1ccc(C(=O)NCC2CC2)cc1`, the IC50 cell viability was more than 10 µM.

As for `COc1cc(N2CCN(C(C)C)CC2)ccc1Nc1nc(Nc2cccc3ncccc23)c2cc[nH]c2n1`, the IC50 cell viability is more than 10 µM. In the case of `CNC(=O)c1cncc(/C=C/c2c(Cl)cccc2Cl)c1`, the IC50 cell viability is more than 10 µM.

Regarding `CCOc1ccc2c(-c3ccnc(Nc4cccc(C(F)(F)F)c4)n3)cnn2n1`, the IC50 cell viability is more than 10 µM. In the case of `CCn1cc(-c2ccnc3[nH]ccc23)c(-c2cccc(NC(=O)Nc3ccc(OCc4ccccc4)cc3)c2)n1` it was more than 10 µM. In the case of `Nc1nccc(-c2c(-c3ccc(F)cc3)ncn2C2CCC(O)CC2)n1` (stereo unspecified) it was more than 10 µM. With `CC(C)c1ccc(-c2cc(-c3cn[nH]c3-c3ccccn3)ccn2)cc1`, the IC50 cell viability is more than 10 µM. In the case of `CCn1c(-c2nonc2N)nc2c(N3CCCC3)nccc21` it was more than 10 µM; in that of `N#Cc1c(NC(=O)c2ccc(F)cc2)sc2c1CCCC2`, more than 10 µM.

In the case of `Nc1ccc(C#Cc2cncnc2Nc2ccc(OCc3cccc(F)c3)c(Cl)c2)cc1`, the IC50 cell viability is more than 10 µM. As for `Nc1ncnc2occ(-c3ccc(NC(=O)Nc4cc(C(F)(F)F)ccc4F)cc3)c12`, the IC50 cell viability is more than 10 µM. `c1cnn2ncc(-c3ccnc(NCCCN4CCOCC4)n3)c2c1` showed an IC50 cell viability of more than 10 µM. Regarding `CN1CCN(C(=O)c2ccc(NC(=O)Nc3ccc(N(C)c4ccnc(Nc5ccc(CS(C)(=O)=O)cc5)n4)cc3)cc2)CC1`, the IC50 cell viability was more than 10 µM. Molecule `NS(=O)(=O)c1ccc(Nc2ncc(-c3ccccc3)o2)cc1` registered an IC50 cell viability of more than 10 µM. In the case of `COc1ccc(-c2nn3ncccc3c2-c2ccnc(Nc3cccc(C(F)(F)F)c3)n2)cc1` it was more than 10 µM; in that of `O=C1Nc2ccc(-c3cccnc3)cc2C1=Cc1cc(Br)c(O)c(Br)c1`, more than 10 µM. Molecule `COc1ccc(-c2oc3ncnc(N)c3c2-c2ccc(NC(=O)Nc3cc(C(F)(F)F)ccc3F)cc2)cc1` showed an IC50 cell viability of more than 10 µM.

The molecule `CN1CCC(n2cnc(-c3ccc(F)cc3)c2-c2ccnc(Nc3ccccc3)n2)CC1` returned an IC50 cell viability of more than 10 µM.

Regarding `CS(=O)(=O)CCNCc1ccc(-c2ccc3ncnc(Nc4ccc(OCc5cccc(F)c5)c(C(F)(F)F)c4)c3c2)o1`, the IC50 cell viability worked out at 4.8 µM.

As for `CCc1nn2ncccc2c1-c1ccnc(NC2CC2)n1`, the IC50 cell viability was more than 10 µM. As to `CC(C)(CO)CNC(=O)c1ccc2[nH]c(O)c(N=Nc3ccc(S(N)(=O)=O)cc3)c2c1`, the IC50 cell viability is more than 10 µM. In the case of `CN(C)CCOc1ccc(-c2nc(-c3ccncc3)c(-c3ccc4c(c3)CC/C4=N\O)[nH]2)cc1` it was more than 10 µM. On to `COc1cc(N2CCN(C(C)C)CC2)ccc1Nc1nc(Nc2ccc(F)cc2C(=O)NC[C@@H](O)CO)c2cc[nH]c2n1`, for which the IC50 cell viability was more than 10 µM. In turn, `COc1cc(C)c(N(C)C(=O)CN(C)C)cc1Nc1nc(Nc2cccc(F)c2C(N)=O)c2cc[nH]c2n1` yielded an IC50 cell viability of more than 10 µM. In turn, `O=C1Nc2ccc(C(=O)c3ccco3)cc2/C1=C/c1cc(Cl)c(O)c(Cl)c1` had an IC50 cell viability of more than 10 µM. In the case of `COC(=O)Nc1nc2ccc(Oc3ccc(NC(=O)Nc4cccc(C(=O)O)c4)cc3)cc2[nH]1`, the IC50 cell viability is more than 10 µM. On to `COC(=O)Nc1nc2ccc(Oc3ccc(NC(=O)Nc4cccc(Br)c4)cc3)cc2[nH]1`, for which the IC50 cell viability was more than 10 µM. In the case of `Nc1nonc1-c1nc2cnccc2n1C1CC1` it was more than 10 µM.

`CCCN1CCC(c2ccc(Nc3nc(Nc4cc(F)ccc4C(N)=O)c4cc[nH]c4n3)c(OC)c2)CC1` gave an IC50 cell viability of more than 10 µM. Consider `CN(C)c1ccc2[nH]c(O)c(C=Nc3ccc(S(N)(=O)=O)cc3)c2c1`, for which the IC50 cell viability was more than 10 µM. In the case of `COc1cc(N2CCN(C(C)C)CC2)ccc1Nc1nc(Nc2cccc(F)c2C(=O)O)c2cc[nH]c2n1` it was more than 10 µM; in that of `NCc1ccc(-n2c(-c3nonc3N)nc3cnccc32)cc1`, 3.9 µM; in that of `FC(F)(F)CNc1nccc(-c2cnn3ncccc23)n1`, 4.4 µM.

The molecule `CS(=O)(=O)CCNCc1ccoc1-c1ccc2ncnc(Nc3ccc(OCc4ccccc4)cc3)c2c1` had an IC50 cell viability of more than 10 µM.

The molecule `O=C(NCC1CC1)c1ccc(-c2cccc(C(=O)NC3CC3)c2)cc1` had an IC50 cell viability of more than 10 µM. The molecule `CS(=O)(=O)CCN(CC#N)Cc1ccc(-c2ccc3ncnc(Nc4ccc(OCc5cccc(F)c5)c(Cl)c4)c3c2)o1` displayed an IC50 cell viability of more than 10 µM. In the case of `NC(=O)c1cccc(Nc2nccc(Nc3cccc4[nH]ncc34)n2)c1` it was more than 10 µM; in that of `CS(=O)(=O)CCNCc1ccc(-c2ccc3ncnc(Nc4ccc(OCc5ccccc5)cc4)c3c2)o1`, more than 10 µM. Consider `c1ccc(COc2ccc(Nc3ncnc4ccc(-c5ccco5)cc34)cc2)cc1`, for which the IC50 cell viability was more than 10 µM. `CCn1c(-c2nonc2N)nc2c(C#CC(C)(C)O)ncc(OCC3CCNCC3)c21` returned an IC50 cell viability of more than 10 µM.
